In patent US20130012466A1 (priority 2006, published 2013):
Like-named read-outs stand apart in the source and are kept apart here.

How the values were obtained:
[1] = tested on: mouse mammary normal epithelial control cell line; test: Cytotoxicity assay, normal control cell line
A549 = test: Cytotoxicity assay (cell titer-glo and calcein AM), A549; conditions: A549, % error in parentheses
Du145 = test: Cytotoxicity assay (cell titer-glo and calcein AM), Du145; conditions: Du145, % error in parentheses
Hep3B = test: Cytotoxicity assay (cell titer-glo and calcein AM), Hep3B; conditions: Hep 3B, % error in parentheses
SF-268 = test: Cytotoxicity assay (cell titer-glo and calcein AM), SF-268; conditions: SF-268, % error in parentheses
SK-OV-3 = test: Cytotoxicity assay (cell titer-glo and calcein AM), SK-OV-3; conditions: SK-OV-3, % error in parentheses
ADR-RES = test: Cytotoxicity assay (cell titer-glo and calcein AM), ADR-RES; conditions: NCI/ADR RES, % error in parentheses
NCI-H460 = test: Cytotoxicity assay (cell titer-glo and calcein AM), NCI-H460; conditions: NCI-H460, % error in parentheses
MCF7 = test: Cytotoxicity assay (cell titer-glo and calcein AM), MCF7
[2] = read-out: Cytotoxicity IC50, NmuMG, CTG, CTG (cell titer-glo) readout, % error in parentheses
[3] = read-out: Cytotoxicity IC50, NmuMG, calcein, calcein AM readout, % error in parentheses
[4] = read-out: Cytotoxicity IC50, A549, CTG, CTG (cell titer-glo) readout
[5] = read-out: Cytotoxicity IC50, A549, calcein, calcein AM readout
[6] = read-out: Cytotoxicity IC50, Du145, CTG, CTG (cell titer-glo) readout
[7] = read-out: Cytotoxicity IC50, Du145, calcein, calcein AM readout
[8] = read-out: Cytotoxicity IC50, Hep 3B, CTG, CTG (cell titer-glo) readout
[9] = read-out: Cytotoxicity IC50, Hep 3B, calcein, calcein AM readout
[10] = read-out: Cytotoxicity IC50, SF-268, CTG, CTG (cell titer-glo) readout
[11] = read-out: Cytotoxicity IC50, SF-268, calcein, calcein AM readout
[12] = read-out: Cytotoxicity IC50, SK-OV-3, CTG, CTG (cell titer-glo) readout
[13] = read-out: Cytotoxicity IC50, SK-OV-3, calcein, calcein AM readout
[14] = read-out: Cytotoxicity IC50, NCI/ADR RES, CTG, CTG (cell titer-glo) readout
[15] = read-out: Cytotoxicity IC50, NCI/ADR RES, calcein, calcein AM readout
[16] = read-out: Cytotoxicity IC50, NCI-H460, CTG, CTG (cell titer-glo) readout
[17] = read-out: Cytotoxicity IC50, NCI-H460, calcein, calcein AM readout
[18] = read-out: Cytotoxicity IC50, MCF7, CTG, CTG (cell titer-glo) readout, % error in parentheses
[19] = read-out: Cytotoxicity IC50, MCF7, calcein, calcein AM readout, % error in parentheses

Row | SMILES | IC50 [1, 2] | IC50 [1, 3] | IC50 (A549; [4]) | IC50 (A549; [5]) | IC50 (Du145; [6]) | IC50 (Du145; [7]) | IC50 (Hep3B; [8]) | IC50 (Hep3B; [9]) | IC50 (SF-268; [10]) | IC50 (SF-268; [11]) | IC50 (SK-OV-3; [12]) | IC50 (SK-OV-3; [13]) | IC50 (ADR-RES; [14]) | IC50 (ADR-RES; [15]) | IC50 (NCI-H460; [16]) | IC50 (NCI-H460; [17]) | IC50 (MCF7; [18]) | IC50 (MCF7; [19])
1 | COc1cc2c(c(OC)c1OC)-c1ccc(OC)c(=O)cc1[C@@H](NC(=O)CN(OC)[C@@H]1O[C@H](CF)[C@@H](O)[C@H](O)[C@H]1O)CC2 [Col54, 6-deoxy-6-fluoro-D-glucoside] | > 10 µM | > 10 µM | > 10 µM | > 10 µM | > 10 µM | > 10 µM | > 10 µM | 4.66 µM | > 10 µM | > 10 µM | > 10 µM | > 10 µM | > 10 µM | > 10 µM | 3.82 µM | 4.9 µM | > 10 µM | > 10 µM
2 | COc1cc2c(c(OC)c1OC)-c1ccc(OC)c(=O)cc1C(NC(=O)CN(OC)C1OCC(O)C(O)C1O)CC2 [Col22, L-riboside] | > 10 µM | > 10 µM | 4.22 µM | 9.44 µM | 2.38 µM | > 10 µM | 2.44 µM | 3.95 µM | 4.16 µM | 4.86 µM | 4.84 µM | 4.84 µM | 2.23 µM | 3.56 µM | 1.16 µM | 2 µM | 4.27 µM | 2.87 µM
3 | COc1cc2c(c(OC)c1OC)-c1ccc(OC)c(=O)cc1C(NC(=O)CN(OC)C1OC(C)C(O)C(O)C1O)CC2 [Col14, L-fucoside] | > 10 µM | > 10 µM | > 10 µM | > 10 µM | > 10 µM | > 10 µM | > 10 µM | > 10 µM | 5.28 µM | 9.89 µM | > 10 µM | > 10 µM | > 10 µM | > 10 µM | 9.03 µM | > 10 µM | 4.95 µM | > 10 µM
4 | COc1cc2c(c(OC)c1OC)-c1ccc(OC)c(=O)cc1[C@@H](NC(=O)CN(OC)[C@@H]1OC[C@@H](O)[C@H](O)[C@H]1O)CC2 [Col4, D-xyloside] | > 10 µM | > 10 µM | > 10 µM | > 10 µM | > 10 µM | > 10 µM | > 10 µM | > 3.35 µM | 8.26 µM | 8.93 µM | > 10 µM | > 10 µM | > 10 µM | > 10 µM | > 10 µM | > 10 µM | > 10 µM | > 10 µM
5 | COc1cc2c(c(OC)c1OC)-c1ccc(OC)c(=O)cc1C(NC(=O)CN(OC)C1OCC(O)C(O)C1O)CC2 [Col7, L-lyxoside] | > 10 µM | > 10 µM | > 10 µM | 9.76 µM | > 10 µM | 4.73 µM | 4.89 µM | 4.74 µM | 4.97 µM | 4.9 µM | > 10 µM | 5.04 µM | > 10 µM | > 10 µM | 7.08 µM | 5.69 µM | 2.65 µM | 3.99 µM
6 | COc1cc2c(c(OC)c1OC)-c1ccc(OC)c(=O)cc1[C@@H](NC(=O)CN(OC)[C@@H]1O[C@H](C)[C@H](O)[C@H](O)[C@H]1O)CC2 [Col9, D-fucoside] | > 10 µM | > 10 µM | > 10 µM | > 10 µM | > 10 µM | > 9.14 µM | > 10 µM | > 10 µM | > 10 µM | > 10 µM | > 10 µM | > 7.83 µM | > 10 µM | > 10 µM | > 10 µM | > 10 µM | > 9.96 µM | > 8.75 µM
7 | COc1cc2c(c(OC)c1OC)-c1ccc(OC)c(=O)cc1[C@@H](NC(=O)CN(OC)[C@@H]1O[C@H](CCl)[C@H](O)[C@H](O)[C@H]1O)CC2 [Col41, 6-deoxy-6-chloro-D-galactoside] | > 10 µM | 9.27 µM | 3.7 µM | 1.07 µM | 6.69 µM | 6.74 µM | 8.8 µM | 5.99 µM | 6.93 µM | 7.87 µM | 5.61 µM | 7.95 µM | 4.97 µM | 3.68 µM | 5.48 µM | 2.31 µM | 3.36 µM | 1.85 µM
8 | COc1cc2c(c(OC)c1OC)-c1ccc(OC)c(=O)cc1[C@@H](NC(=O)CN(OC)[C@@H]1O[C@H](CN=[N+]=[N-])[C@H](O)[C@H](O)[C@H]1O)CC2 [Col43, 6-deoxy-6-azido-D-galactoside] | 3.82 µM | 3.93 µM | > 10 µM | > 10 µM | 4.87 µM | 4.19 µM | 5.3 µM | 3.89 µM | 5.15 µM | 8.46 µM | > 10 µM | 5.79 µM | 5.04 µM | 2.51 µM | 5.01 µM | 2.36 µM | 4.91 µM | 3.68 µM
9 | COc1cc2c(c(OC)c1OC)-c1ccc(OC)c(=O)cc1[C@@H](NC(=O)CN(OC)[C@@H]1OC[C@@H](O)[C@H](O)[C@@H]1O)CC2 [Col1, D-lyxoside] | > 10 µM | 6.49 µM | 2.91 µM | 1.21 µM | 1.97 µM | 2 µM | 3.5 µM | 3.69 µM | 3.86 µM | 4 µM | 4 µM | 4 µM | 2.63 µM | 1.91 µM | 4.51 µM | 3.93 µM | 1.9 µM | 1.33 µM
10 | CCCCCCCCCC(=O)N[C@@H]1[C@@H](O)[C@H](N(CC(=O)N[C@H]2CCc3cc(OC)c(OC)c(OC)c3-c3ccc(OC)c(=O)cc32)OC)O[C@H](CO)[C@H]1O [Col60, 3-deoxy-3-N-decanoyl-D-glucosaminoside] | 8.37 µM | 6.04 µM | > 10 µM | > 10 µM | 4.79 µM | 6.2 µM | 4.97 µM | > 10 µM | 5.03 µM | 4.13 µM | 4.38 µM | 4.15 µM | 4.98 µM | 4.65 µM | 3.98 µM | 5.88 µM | 3.36 µM | 3.04 µM
11 | COc1cc2c(c(OC)c1OC)-c1ccc(OC)c(=O)cc1[C@@H](NC(=O)CN(OC)[C@@H]1O[C@H](CO)[C@@H](O)C[C@H]1O)CC2 [Col3, 3-deoxy-D-glucoside] | > 10 µM | > 10 µM | 9.91 µM | > 10 µM | > 10 µM | 6.56 µM | 5.16 µM | 4.07 µM | 5.32 µM | 8.42 µM | 4.42 µM | 4.21 µM | > 10 µM | > 10 µM | 8.37 µM | 1.96 µM | 3.25 µM | > 10 µM
12 | COc1cc2c(c(OC)c1OC)-c1ccc(OC)c(=O)cc1C(NC(=O)CN(OC)C1OC(C)C(O)C(O)C1O)CC2 [Col37, L-rhamnoside] | 7.72 µM | 7.76 µM | 7.07 µM | 7.28 µM | 5.81 µM | 4.36 µM | 8.26 µM | 9.57 µM | 4.79 µM | 4.68 µM | 5.58 µM | > 10 µM | 4.56 µM | 4.48 µM | 3.72 µM | 6.7 µM | 3.81 µM | 1.56 µM
